Laboratory results from patent US8012973B2, “Compounds for the treatment of auricular fibrillation” (Proyecto de Biomedicina Cima S.L., priority 2005, dated 2011).
“Also recorded” adds a separate entry of the source.

Experiments:
[1] = tested on: isolated human atrial myocytes; assay: Patch-clamp recording of spontaneous Na-Ca exchange current (INCX) associated with calcium waves, membrane potential clamped at -80 mV; assay type: cell-based; conditions: for basal calcium wave frequency measured by patch clamp technique: cells from atrial fibrillation patients with elevated basal SR calcium release, n=7, both antagonists pooled (FIG. 3B right); for reversal of the specific effect of CGS 21680 on spontaneous SR calcium release: antagonist concentration not stated at this place
Method: (§1) Myocytes were isolated from human atrial tissue samples as previously described (cf. L. Hove-Madsen et al., “Atrial fibrillation is associated with increased spontaneous calcium release from the sarcoplasmic reticulum in human atrial myocytes”, Circulation 2004, vol. 110, pp. 1358-63). Briefly, the samples were rinsed, cut into small pieces in a calcium free solution containing 30 mM butanedione monoxime (BDM), and incubated at 35° C. in a Ca^2+ free solution containing 0.5 mg/ml collagenase (Worthington type 2, 318 u/mg) and 0.5 mg/ml proteinase (Sigma type XXIV, 11 u/mg solid). After 45 minutes, the tissue was removed from the enzyme solution and cells were disgregated in Ca^2+-free solution with a Pasteur pipette. The remaining tissue was digested for 3×15 minutes in a fresh calcium free solution containing 0.4 mg/ml collagenase. […] Only elongated cells with clear cross striations and without granulation were used for experiments.
The transient inward Na—Ca exchange current associated with calcium waves was recorded in the perforated patch configuration using a software controlled patch-clamp amplifier (EPC 10, HEKA, Germany). The pipette resistance was 1.5-4 MΩ. Experiments were carried out at room temperature and began when the access resistance was stable and had decreased to less than 5 times the pipette resistance. The extracellular solution contained (in mM): NaCl 127, tetraethyl ammonium (TEA) 5, HEPES 10, NaHCO3 4, NaH2PO4 0.33, glucose 10, pyruvic acid 5, CaCl2 2, MgCl2 1.8, (pH=7.4). The pipette solution contained (in mM): aspartic acid 109, CsCl 47, Mg2ATP 3, MgCl2 1, Na2phosphocreatine 5, Li2GTP 0.42, HEPES 10 and 250 μg/ml amphotericin B, (pH=7.2). The A2A receptor agonist […], the antagonists ZM 241385 and SCH 58261, and the protein kinase A inhibitor H-89 were all dissolved in DMSO and kept as 10 mM stock solutions. The caffeine releasable SR calcium content was measured by transiently exposing cells to 10 mM caffeine. The time integral of the resulting Na—Ca exchange current was converted to pmoles […] of calcium released from the SR assuming a stoichiometry of 3Na^+:1Ca^2+ for the Na—Ca exchanger.
Electrophysiological and confocal calcium imaging experiments were carried out without knowledge about the clinical data of the patients. The Ca^2+ sparks and Ca^2+ waves recorded in cells from the same patient were averaged. Unless otherwise stated, average values from each patient were used for statistical analysis and expressed as mean±S.E.M. Data sets were tested for normality. Student's t-test was used to assess significant differences when testing a specific effect. ANOVA was used for comparison of multiple effects and Student-Newman-Keuls post test was used to evaluate the significance of specific effects.

[2] = tested on: isolated human atrial myocytes; assay: Spontaneous SR calcium release (calcium sparks and waves), confocal calcium imaging of fluo-3 loaded cells; assay type: cell-based; conditions: for basal calcium wave frequency measured by confocal microscopy: 50 nM, cells from atrial fibrillation patients with elevated basal SR calcium release, n=6, both antagonists pooled (FIG. 3B left)
Method: as §1
Calcium sparks and calcium waves were detected in fluo-3 loaded cells using a laser-scanning confocal microscope (Leica TCS SP2 AOBS, Germany). […] Fluorescence emission was collected between 500 and 650 nm with the excitation at 488 nm attenuated to 1-5%. Calcium sparks and calcium waves were measured at resting conditions during 2×10.24 s, at a scan rate of 1 kHz. Calcium sparks were detected as an increase in the signal mass of a 3 μm section through the center of a calcium spark, without any detectable increase in an adjacent 3 μm section. An increase in the signal mass in two or more adjacent 3 μm sections were counted as calcium waves. The amplitude of each calcium spark and its half-life were determined from an exponential fit of the decaying phase of the calcium spark transient. The calcium spark frequency was determined for each cell and normalized to the scanned cell length.
Electrophysiological and confocal calcium imaging experiments were carried out without knowledge about the clinical data of the patients. The Ca^2+ sparks and Ca^2+ waves recorded in cells from the same patient were averaged. […]

SMILES: CCNC(=O)[C@H]1O[C@@H](n2cnc3c(N)nc(NCCc4ccc(CCC(=O)O)cc4)nc32)[C@H](O)[C@@H]1O [CGS 21680]
- number of spontaneous calcium waves measured as the Na-Ca exchange current (INCX) ([1]; 200 nM, -80 mV, atrial fibrillation patients (FIG. 2A, B, D)): reversibly increased the number of spontaneous calcium waves
- number of calcium waves ([2]; myocytes from patients with atrial fibrillation, preincubation with 200 nM): increased the number of calcium waves

SMILES: O=S(=O)(NCCNC/C=C/c1ccc(Br)cc1)c1cccc2cnccc12 [H-89]
- effect on the stimulatory effect of 200 nM CGS 21680 (wave frequency) ([1]; 10 μM H-89, myocytes from 5 patients with atrial fibrillation (FIG. 2E), p=0.002 CGS vs. CGS+H-89): abolished the stimulatory effect; also recorded: eliminated
- spontaneous calcium release / calcium wave frequency relative to baseline before CGS 21680 ([1]; 10 μM H-89 with 200 nM CGS 21680, p=0.05 vs. control (FIG. 2E)): reduced spontaneous calcium release to a significantly lower level than the baseline; also recorded: reduces the calcium wave frequency below baseline level

SMILES: Nc1nc2c(cnn2CCc2ccccc2)c2nc(-c3ccco3)nn12 [SCH 58261]
- basal calcium wave frequency measured by patch clamp technique ([1]; 50 nM): significantly reduced the calcium wave frequency
- spontaneous INCX frequency (basal) ([1]; 50 nM, samples of patients with atrial fibrillation, -80 mV (FIG. 3A)): reversible reduction
- reversal of the specific effect of CGS 21680 on spontaneous SR calcium release [1]: reversed
- basal calcium wave frequency measured by confocal microscopy [2]: significantly reduced the calcium wave frequency

SMILES: Nc1nc(NCCc2ccc(O)cc2)nc2nc(-c3ccco3)nn12 [ZM 241385]
- basal calcium wave frequency measured by patch clamp technique ([1]; 50 nM): significantly reduced the calcium wave frequency
- reversal of the stimulatory effect of 200 nM CGS 21680 on spontaneous INCX ([1]; antagonist 1 μM, -80 mV (FIG. 2C)): able to revert the stimulatory effect
- reversal of the specific effect of CGS 21680 on spontaneous SR calcium release [1]: reversed
- basal calcium wave frequency measured by confocal microscopy [2]: significantly reduced the calcium wave frequency
